Measurements published in patent US20140357655A1, “SPIROINDOLINE DERIVATIVES AS GONADOTROPIN- RELEASING HORMONE RECEPTOR ANTAGONISTS” (Bayer Intellectual Property GmbH, priority 2012, published 2014).

Target: T1, human GnRH receptor (Homo sapiens, UniProt P30968)
T1 sequence (P30968 1-328): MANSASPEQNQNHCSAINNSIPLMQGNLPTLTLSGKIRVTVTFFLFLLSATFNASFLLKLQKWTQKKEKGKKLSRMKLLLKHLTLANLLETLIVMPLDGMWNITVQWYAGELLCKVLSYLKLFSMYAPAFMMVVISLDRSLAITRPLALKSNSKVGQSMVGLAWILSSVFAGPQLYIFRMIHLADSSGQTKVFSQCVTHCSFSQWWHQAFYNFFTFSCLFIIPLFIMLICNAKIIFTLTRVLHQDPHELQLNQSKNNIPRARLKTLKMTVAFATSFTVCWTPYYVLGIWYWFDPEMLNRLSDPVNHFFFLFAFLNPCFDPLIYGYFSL
Experiment: IP-One HTRF assay with buserelin (at EC80) stimulation
Assay type: cell-based
Settings: CHO cells stably expressing human GnRH receptor, read-out: Potency in IP-One HTRF assay, given as IC50
In short: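 Ten-point duplicate titrations (20 μM to 1 nM) were fitted by 4-parameter model to normalized 665/620 nm HTRF ratios, 0% = no compound, 100% = no agonist. Assay measured IP1 accumulation in human GnRH-R CHO cells stimulated 1 h at 37° C with EC80 buserelin, then lysed 1 h at 22° C.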

Point of comparison: `O=C(NCc1ncccc1C(F)(F)F)c1ccc2c(c1)C1(CCS(=O)(=O)CC1)C(C1CC1)N2S(=O)(=O)c1cccc(OC(F)(F)F)c1` (stereo not drawn) [Example 84, 2-cyclopropyl-1-{[3-(trifluoromethoxy)phenyl]sulfonyl)-N-{[3-(trifluoromethyl)pyridin-2-yl]methyl}-1,2,2′,3′,5′,6′-hexahydrospiro[indole-3,4′-thiopyran]-5-carboxamide 1′,1′-dioxide], IC50 309 nM. Against it:
- N#Cc1cccc(S(=O)(=O)N2c3ccc(C(=O)Nc4ncco4)cc3C3(CCS(=O)(=O)CC3)C2C2CC2)c1 (stereo not drawn) [Example 78, 1-[(3-cyanophenyl)sulfonyl]-2-cyclopropyl-N-(1,3-oxazol-2-yl)-1,2,2′,3′,5′,6′-hexahydrospiro[indole-3,4′-thiopyran]-5-carboxamide 1′,1′-dioxide] — 2.3-fold higher, 706 nM
- N#Cc1cccc(S(=O)(=O)N2c3ccc(C(=O)NCc4ncccc4C(F)(F)F)cc3C3(CCS(=O)(=O)CC3)C2C2CC2)c1 (stereo not drawn) [Example 79, 1-[(3-cyanophenyl)sulfonyl]-2-cyclopropyl-N-{[3-(trifluoromethyl)pyridin-2-yl]methyl}-1,2,2′,3′,5′,6′-hexahydrospiro[indole-3,4′-thiopyran]-5-carboxamide 1′,1′-dioxide] — 4.8-fold lower, 64 nM
- N#Cc1cccc(S(=O)(=O)N2c3ccc(C(=O)Nc4ccon4)cc3C3(CCS(=O)(=O)CC3)C2C2CC2)c1 (stereo not drawn) [Example 80, 1-[(3-cyanophenyl)sulfonyl]-2-cyclopropyl-N-(1,2-oxazol-3-yl)-1,2,2′,3′,5′,6′-hexahydrospiro[indole-3,4′-thiopyran]-5-carboxamide 1′,1′-dioxide] — within 1.5-fold, 218 nM
- O=C(NCc1ccccc1Cl)c1ccc2c(c1)C1(CCS(=O)(=O)CC1)C(C1CC1)N2S(=O)(=O)c1cccc(OC(F)(F)F)c1 (stereo not drawn) [Example 81, N-(2-chlorobenzyl)-2-cyclopropyl-1-{[3-(trifluoromethoxy)phenyl]sulfonyl}-1,2,2′,3′,5′,6′-hexahydrospiro[indole-3,4′-thiopyran]-5-carboxamide 1′,1′-dioxide] — within 1.5-fold, 437 nM
- COC(=O)c1cccc(NC(=O)c2ccc3c(c2)C2(CCS(=O)(=O)CC2)C(C2CC2)N3S(=O)(=O)c2cccc(OC(F)(F)F)c2)c1 (stereo not drawn) [Example 82, methyl 3-{[(2-cyclopropyl-1′,1′-dioxido-1-{[3-(trifluoromethoxy)phenyl]sulfonyl}-1,2,2′,3′,5′,6′-hexahydrospiro[indole-3,4′-thiopyran]-5-yl)carbonyl]amino}benzoate] — 2-fold higher, 609 nM
- O=C(O)c1cccc(NC(=O)c2ccc3c(c2)C2(CCS(=O)(=O)CC2)C(C2CC2)N3S(=O)(=O)c2cccc(OC(F)(F)F)c2)c1 (stereo not drawn) [Example 83, 3-{[(2-cyclopropyl-1′,1′-dioxido-1-{[3-(trifluoromethoxy)phenyl]sulfonyl}-1,2,2′,3′,5′,6′-hexahydrospiro[indole-3,4′-thiopyran]-5-yl)carbonyl]amino}benzoic acid] — 2.2-fold lower, 140 nM
- Cc1cncc(NC(=O)c2ccc3c(c2)C2(CCS(=O)(=O)CC2)C(C2CC2)N3S(=O)(=O)c2cccc(OC(F)(F)F)c2)c1 (stereo not drawn) [Example 85, 2-cyclopropyl-N-(5-methylpyridin-3-yl)-1-{[3-(trifluoromethoxy)phenyl]sulfonyl}-1,2,2′,3′,5′,6′-hexahydrospiro[indole-3,4′-thiopyran]-5-carboxamide 1′,1′-dioxide] — 2.6-fold higher, 804 nM
- O=C(NCc1ccccc1Cl)c1ccc2c(c1)C1(CCS(=O)(=O)CC1)C(C1CC1)N2S(=O)(=O)c1cccc(OC(F)F)c1 (stereo not drawn) [Example 86, N-(2-chlorobenzyl)-2-cyclopropyl-1-{[3-(difluoromethoxy)phenyl]sulfonyl}-1,2,2′,3′,5′,6′-hexahydrospiro[indole-3,4′-thiopyran]-5-carboxamide 1′,1′-dioxide] — 1.6-fold lower, 196 nM
